Like-named read-outs stand apart in the source and are kept apart here.

Results on 16 compounds are retold here after patent publication US20180106727A1, “ULTRA-HIGH-SENSITIVE ASSAY OF PROTEIN AND NUCLEIC ACID AND KIT, AND NOVEL ENZYME SUBSTRATE” (priority 2011, published 2018).

One assay addresses β-galactosidase (Escherichia coli, UniProt P00722). The conditions noted are these: β-Gal assay.
Assay [1] relates to 3α-hydroxysteroid dehydrogenase. In words: Rotation numbers of thio-NAD cycling reactions with 3α-hydroxyandrostanes. The assay is classed as biochemical. The protocol:
The cycling system using thio-NAD(P) in the enzymatic cycling system is a unique cycling system that appeared relatively recently. With this system, the cycling is performed that is, thio-NAD(P)/thio-NAD(P)H using dehydrogenase (DH) with NAD(P)/NAD(P)H as a co-enzyme under conditions of coexistence of NAD(P)/NAD(P)H and its analog, and the amplification and the quantification are performed with thio-NAD(P)H (maximum absorption wavelength: 400 nm, molar absorption coefficient=11,900) as a substrate of dehydrogenase. The principle for measurement of the thio-NAD(P)cycling system is as described below.

Assay [2] has the same test system. As to the kind of experiment: Dehydrogenation reaction of androsterone, reaction rate with thio-NAD versus NAD as co-enzyme. Format: biochemical. From the text: The substrate for the cycling is preferably those having fast enzyme reaction rate (having high activity for the substrate) and reacting even at a low concentration (having low Km value). In addition, a desirable property as the dehydrogenase is the reaction rate when using thio-NAD(P) as a co-enzyme. In the dehydrogenation reaction of androsterone by other many dehydrogenases, the reaction rate when thio-NAD is used as a co-enzyme is within several % of the reaction rate when NAD is used, while with 3α-hydroxysteroid dehydrogenase, the reaction rate with thio-NAD is about 59% of the reaction rate with NAD. Thus, 3α-hydroxysteroid dehydrogenase has a desirable property as the cycling enzyme of the present invention. Furthermore, widely used alkaline phosphatase (ALP) can be used as the labeling enzyme to be combined, and the combination with alkaline phosphatase is preferable also in a point of easy synthesis of a phosphate ester of an androsterone derivative at the position 3 that is a substrate of alkaline phosphatase.

Setting [3] is: conventional substrate, no cycling method printed.
Setting [4] is: relative to 5α-Androsterone = 100.
Where [5] appears, read: thio-NAD cycling, compound as substrate.

Chain of β-galactosidase (P00722 2-1024): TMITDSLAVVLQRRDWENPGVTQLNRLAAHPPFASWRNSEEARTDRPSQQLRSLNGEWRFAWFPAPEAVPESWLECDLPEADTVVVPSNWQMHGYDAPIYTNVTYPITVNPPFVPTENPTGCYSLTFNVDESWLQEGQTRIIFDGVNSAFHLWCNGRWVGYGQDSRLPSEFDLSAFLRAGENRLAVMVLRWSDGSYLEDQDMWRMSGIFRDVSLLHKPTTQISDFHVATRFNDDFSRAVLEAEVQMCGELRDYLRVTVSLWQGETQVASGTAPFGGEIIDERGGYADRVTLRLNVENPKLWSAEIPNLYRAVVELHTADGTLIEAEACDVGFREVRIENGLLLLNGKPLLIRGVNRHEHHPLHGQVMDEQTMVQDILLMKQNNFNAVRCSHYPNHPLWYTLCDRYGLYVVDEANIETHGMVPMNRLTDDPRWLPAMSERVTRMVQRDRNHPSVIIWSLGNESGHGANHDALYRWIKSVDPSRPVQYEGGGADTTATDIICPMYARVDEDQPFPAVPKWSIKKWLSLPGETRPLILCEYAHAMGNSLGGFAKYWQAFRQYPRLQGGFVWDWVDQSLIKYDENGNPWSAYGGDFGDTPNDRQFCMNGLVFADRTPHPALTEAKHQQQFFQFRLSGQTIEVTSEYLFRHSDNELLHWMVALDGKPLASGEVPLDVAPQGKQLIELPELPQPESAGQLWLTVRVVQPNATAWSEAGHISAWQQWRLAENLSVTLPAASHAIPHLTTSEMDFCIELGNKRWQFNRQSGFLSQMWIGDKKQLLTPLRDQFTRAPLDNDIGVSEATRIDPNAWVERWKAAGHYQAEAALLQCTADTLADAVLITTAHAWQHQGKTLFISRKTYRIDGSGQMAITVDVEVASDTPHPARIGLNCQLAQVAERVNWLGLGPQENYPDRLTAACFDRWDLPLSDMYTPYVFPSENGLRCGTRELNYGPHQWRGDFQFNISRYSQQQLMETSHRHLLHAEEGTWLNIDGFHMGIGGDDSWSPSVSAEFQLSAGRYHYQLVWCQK
Method for β-galactosidase: 0.1 M pyrophosphate buffer solution (pH 9.0); 1.2 mM thio-NAD; 3.6 mM NADH; 40 U/mL 3α-hydroxysteroid dehydrogenase
To a flat-bottomed microplate well, 25 μL of a phosphate buffer solution (pH 7.3) containing the standard substance (β-galactosidase) in a range of 0 to 200 pg/ml was added, and subsequently, 25 μL of Reaction Test Solution A was added to the well, respectively. The reaction solution was mixed, and the microplate was incubated at 37° C. for 60 minutes. Then, 50 μL of Reaction Test Solution B was added to each well, respectively, and the absorbance was measured for 30 minutes using a 405 nm filter with a microplate reader (MTP-500 manufactured by CORONA CORPORATION) while warming the microplate to 37° C. The amount of the absorbance change for 30 minutes was plotted with respect to the concentrations of the standard substance.
To a flat-bottomed microplate well, 50 μL of a phosphate buffer solution (pH 7.7) containing the standard substance (β-galactosidase) in a range of 0 to 250 pg/ml was added, and subsequently, 50 μL of Reaction Test Solution was added to each well, respectively. The absorbance was measured for 120 minutes using a 405 nm filter with a microplate reader (MTP-500 manufactured by CORONA CORPORATION) while warming the microplate to 37° C. The amount of the absorbance change for 120 minutes was plotted with respect to the concentrations of the standard substance.
0.1 M pyrophosphate buffer solution (pH 9.0); 4.8 mM thio-NAD; 0.4 mM NADH; 40 U/mL 3α-hydroxysteroid dehydrogenase
To a flat-bottomed microplate well, 25 μL of a phosphate buffer solution (pH 7.5) containing the standard substance (β-galactosidase) in a range of 0 to 200 pg/mL was added, and subsequently, 25 μL of Reaction Test Solution A was added to the well, respectively. The reaction solution was mixed, and the microplate was incubated at 37° C. for 60 minutes. Then, 50 μL of Reaction Test Solution B was added to each well, respectively, and the absorbance was measured for 30 minutes using a 405 nm filter with a microplate reader (MTP-500 manufactured by CORONA CORPORATION) while warming the microplate to 37° C. The amount of the absorbance change for 30 minutes was plotted with respect to the concentrations of the standard substance.
0.1 M pyrophosphate buffer solution (pH 9.8); 1.2 mM thio-NAD; 1 mM NADH; 40 U/mL 3α-hydroxysteroid dehydrogenase
To a flat-bottomed microplate well, 25 μL of a phosphate buffer solution (pH 7.5) containing the standard substance (β-galactosidase) in a range of 0 to 200 pg/mL was added, and subsequently, 25 μL of Reaction Test Solution A was added to the well, respectively. The reaction solution was mixed, and the microplate was incubated at 37° C. for 60 minutes.

In the case of `Cc1cc(=O)oc2cc(O[C@@H]3O[C@H](CO)[C@H](O)[C@H](O)[C@H]3O)ccc12` [4-MUG, reference compound], at β-galactosidase (setting [3]), the Detection limit turned out to be 9.76e-18 mol and the Quantification limit worked out at 3.25e-17 mol.

Consider `C=C1CC[C@H]2[C@@H]3CC[C@H]4C[C@H](O)CC[C@]4(C)[C@H]3CC[C@]12C` [5α-17-CH2, 3α-Hydroxy-17-methylene-5α-Androstane], for which the “Rotation number, Relative value (%)” value in assay [1] (setting [4]) came out at 49%. Also, in assay [1] (setting [5]), the “Rotation number of cycling reaction” value amounted to 308 Cycle/min.

As to `C[C@H]1CC[C@H]2[C@@H]3CC[C@H]4C[C@H](O)CC[C@]4(C)[C@H]3CC[C@]12C` [5α-17-CH3, 3α-Hydroxy-17β-methyl-5α-Androstane], the “Rotation number, Relative value (%)” value in assay [1] (setting [4]) is listed as 32%. Also, the “Rotation number of cycling reaction” value in assay [1] (setting [5]) amounted to 200 Cycle/min.

As to `C[C@@]12CCC[C@H]1[C@@H]1CC[C@H]3C[C@H](O)CC[C@]3(C)[C@H]1CC2` [5α-17-deoxo, 3α-Hydroxy-5α-Androstane], the “Rotation number, Relative value (%)” value in assay [1] (setting [4]) was found to be 39%. Also, the “Rotation number of cycling reaction” value in assay [1] (setting [5]) is 241 Cycle/min.

At β-galactosidase (Two-steps), `C[C@]12CC[C@@H](O[C@@H]3O[C@H](CO)[C@H](O)[C@H](O)[C@H]3O)C[C@@H]1CC[C@@H]1[C@@H]2CC[C@]2(C)C(=O)CC[C@@H]12` [5α-AG, 5α-androsterone 3-β-galactoside] gave a Detection limit of 3.89e-19 mol and a Quantification limit of 1.3e-18 mol.

As to `C[C@]12CC[C@@H](O)C[C@@H]1CC[C@@H]1[C@@H]2CC[C@]2(C)C(=O)CC[C@@H]12` [5α-Androsterone, reference compound], the “Rotation number, Relative value (%)” value in assay [1] was determined as 100%.

As for `C[C@]12CCC(=O)C[C@@H]1CC[C@@H]1[C@@H]2CC[C@]2(C)[C@@H](O)CC[C@@H]12` [5α-DHT, 5α-Dihydrotestosterone, reference compound], in assay [1], the “Rotation number of cycling reaction” value was 535 Cycle/min and the “Rotation number, Relative value (%)” value amounted to 86%.

Regarding `C[C@H]1CC[C@H]2[C@@H]3CC[C@@H]4C[C@H](O)CC[C@]4(C)[C@H]3CC[C@]12C` [5β-17-CH3, 3α-Hydroxy-17β-methyl-5β-Androstane], in assay [1] (setting [4]), the “Rotation number, Relative value (%)” value was determined as 18%. In assay [1] (setting [5]), the “Rotation number of cycling reaction” value is reported as 114 Cycle/min.

For the compound `CO[C@H]1CC[C@H]2[C@@H]3CC[C@@H]4C[C@H](O)CC[C@]4(C)[C@H]3CC[C@]12C` [5β-17β-OCH3], the “Rotation number, Relative value (%)” value in assay [1] (setting [4]) is recorded as 74%. For the same compound, the “Rotation number of cycling reaction” value in assay [1] (setting [5]) is 458 Cycle/min.

At β-galactosidase (One-step), `C[C@]12CC[C@@H](O[C@@H]3O[C@H](CO)[C@H](O)[C@H](O)[C@H]3O)C[C@H]1CC[C@@H]1[C@@H]2CC[C@]2(C)C(=O)CC[C@@H]12` [5β-AG, 5β-Androsterone-3β-D-Galactoside] came in with a Detection limit of 3.31e-19 mol and a Quantification limit of 1.1e-18 mol. At β-galactosidase (Two-steps), this compound yielded a Detection limit of 7.48e-20 mol and a Quantification limit of 2.49e-19 mol.

Consider `C[C@]12CC[C@@H](O)C[C@H]1CC[C@@H]1[C@@H]2CC[C@]2(C)C(=O)CC[C@@H]12` [5β-Androsterone, reference compound], for which, in assay [1], the “Rotation number of cycling reaction” value is given as 384 Cycle/min and the “Rotation number, Relative value (%)” value was found to be 62%.

On to `CO[C@H]1CC[C@H]2[C@@H]3CC[C@@H]4C[C@H](O[C@@H]5O[C@H](CO)[C@H](O)[C@H](O)[C@H]5O)CC[C@]4(C)[C@H]3CC[C@]12C` [17-OMe 5β-AG], for which the results for the Detection limit on β-galactosidase (One-step) and at β-galactosidase (Two-steps) were 3.21e-19 mol and 1.09e-19 mol, respectively. The Quantification limit on β-galactosidase (One-step) came to 1.07e-18 mol; on β-galactosidase (Two-steps) it was 3.64e-19 mol.

`C[C@H](CCC(=O)NCC(=O)O)[C@H]1CC[C@H]2[C@@H]3[C@H](O)C[C@@H]4C[C@H](O)CC[C@]4(C)[C@H]3CC[C@]12C` [Glycochenodeoxycholate, Sodium glycochenodoxycholate, reference compound]: the “Rotation number, Relative value (%)” value in assay [1] (setting [4]) turned out to be 21%. Further, the “Rotation number of cycling reaction” value in assay [1] (setting [5]) is 129 Cycle/min.

As to `O=[N+]([O-])c1ccccc1O[C@@H]1O[C@H](CO)[C@H](O)[C@H](O)[C@H]1O` [ONPG, o-Nitrophenyl β-D-Galactopyranoside, reference compound], on β-galactosidase (setting [3]), the Detection limit worked out at 4.5e-17 mol and the Quantification limit stood at 1.5e-16 mol.

In the case of `C[C@]12CC[C@@H](OP(=O)(O)O)C[C@@H]1CC[C@@H]1[C@@H]2CC[C@]2(C)C(=O)CC[C@@H]12` [androsterone 3-phosphate, reference compound], in assay [1], the “Effect of the substrate on the cycling reaction” value was “inhibition of the substrate on the cycling reaction”.

As for `NC(=S)c1ccc[n+]([C@@H]2O[C@H](COP(=O)([O-])OP(=O)(O)OC[C@H]3O[C@@H](n4cnc5c(N)ncnc54)[C@H](O)[C@@H]3O)[C@@H](O)[C@H]2O)c1` [thio-NAD], the “Reaction rate with thio-NAD relative to the reaction rate with NAD” value in assay [2] is on record as “about 59%”.
